Experimental data published in patent US20070015810A1, “5(R)-Substituted Pyrazoline Compounds, their Preparation and Use as Medicaments” (LABORATORIOS DEL DR. ESTEVE, S.A., priority 2005, published 2007).
Counter-ions that a name gives are not always drawn.

Key:
CB1-receptor = CB1-receptor (UniProt P20272); experiment: In-vitro determination of affinity (binding) to the CB1-receptor, radioligand [3H]-CP55940; conditions: Pharmacological methods part I
Source text: 1. In-vitro determination of affinity to CB1CB2-Receptors
The in-vitro determination of the affinity of the inventive substituted pyrazoline compounds to CB1/CB2-Rezeptors is carded out as described in the publication of Ruth A. Ross, Heather C. Brockie et al., “Agonist-inverse agonist characterization at CB1 and CB2 cannabinoid receptors of L-759633, L759656 and AM630”, British Journal of Pharmacology, 126, 665-672, (1999), whereby the transfected human CB1 and CB2 receptors of Receptor Biology, Inc. are used. The radioligand used for both receptors is [^3H]-CP55940. The respective parts of the description is hereby incorporated by reference and forms part of the present disclosure. […]
Binding affinity to CB1 receptor was evaluated according to a modification of the method described by Govaerts et al., Eur J Pharmac Sci 23, 233-243 (2004). […]
Briefly, cerebellum from male wistar rats (250-300 g) were carefully dissected on ice and homogenates were prepared with Potter-Helveheim in a cold 50 mM Tris-HCl solution containing 5 mM MgCl2, 1 mM EDTA and 0.25 M sucrose, pH 7.4. […] Total protein concentration was determined using the Bio-Rad Lowry method based kit. […] Compounds were present at various concentrations and the non specific binding was determined in the presence of 10 μM HU-210. […]
Binding data were analyzed by non-linear regression with the software GraphPad Prism Version 3.03. […]

[1] = target: T1, recombinant human cannabinoid 1 receptor (CB1) (Homo sapiens, UniProt P21554); experiment: [35S]GTPγS binding assay, antagonism to CB1-receptor in CHO cell membranes; type: biochemical; conditions: compound 1 μM versus agonist WIN 55,212-2; 100% = difference between maximal WIN 55,212-2 effect alone and with Rimonabant (1 μM)
T1 construct: expressed in transfected cells; membrane preparation
T1 sequence (P21554 whole entry): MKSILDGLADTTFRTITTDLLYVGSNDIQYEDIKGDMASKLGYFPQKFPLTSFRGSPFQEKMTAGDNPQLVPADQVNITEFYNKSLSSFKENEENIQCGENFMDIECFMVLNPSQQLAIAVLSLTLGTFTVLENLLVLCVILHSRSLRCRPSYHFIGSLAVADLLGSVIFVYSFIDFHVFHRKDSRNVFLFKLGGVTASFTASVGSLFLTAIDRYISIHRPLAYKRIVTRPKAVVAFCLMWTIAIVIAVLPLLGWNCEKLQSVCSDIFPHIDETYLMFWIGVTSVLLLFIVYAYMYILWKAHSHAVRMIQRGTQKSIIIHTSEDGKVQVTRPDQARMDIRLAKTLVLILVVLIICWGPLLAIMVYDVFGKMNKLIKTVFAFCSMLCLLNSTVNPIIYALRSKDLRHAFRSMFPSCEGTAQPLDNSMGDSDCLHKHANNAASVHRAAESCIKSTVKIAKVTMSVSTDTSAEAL
Procedure: VI. In Vitro Determination of Antagonism to CB1-Receptor
Chinese hamster ovary (CHO) cells stably expressing recombinant human cannabinoid 1 receptor (CB1) were cultured in nutrient mixture Ham's F 12 supplemented with 10% heat-inactivated fetal bovine serum, 2 mM L-glutamine, 50 U/ml penicillin, 50 U/ml streptomycin and 0.5 mg/ml geneticin. In order to obtain cells, culture flasks were washed twice with phosphate buffered saline and scraped. Then, cells were collected by centrifugation (200×g, 10 min) and stored dry at −80° C. Cells were homogenized in ice-cold 20 mM HEPES, 10 mM EDTA (pH 7.5) and centrifuged at 40,000×g for 15 min at 4° C. The membrane pellet was resuspended in 20 mM HEPES, 0.1 mM EDTA (pH 7.5) and centrifuged for 15 min at 4° C. The final membrane pellet was resuspended in 20 mM HEPES, 0.1 mM EDTA (pH 7.5), and divided in aliquots and stored at −80° C. until use.
The reaction was performed in 96-well plates. […] Radioactivity was determined using a Wallac Microbeta Trilux. […]
The antagonism of the pyrazoline compounds of general formula I to the CB1-receptor was determined according to the method described in Pharmacological methods, part VI (table 2).

[2] = Effect of continued administration on body weight in rats; type: in vivo; conditions: 10 mg/kg i.p. once daily
Procedure: V. Determination of the Effect of Continued Administration of the Inventive Compounds on Body Weight in Rats
The weight of the animals was measured for 36 days, and the data grouped into 3 periods for analysis. Period 1, days 1-8 (period for adaptation of the animals to the environmental conditions: one week without treatment plus first day of treatment); Period 2, days 9-22 (treatment period: two weeks); Period 3, days 23-36 (escape treatment period: two weeks). The administration of the drugs started on day 8, immediately after the animal was weighted, and finished on day 21. The treatment period ranges between one day after first administration and one day after last administration. The drugs were administered i.p. once daily. For comparative purposes, absolute weights were transformed into relative percentages (each weight was divided by that of day 8 and multiplied by 100). […] All results are expressed as mean±S.E.M.
The dependence of body-weight (expressed as a percentage relative to day 8) on time (number of days after inclusion in the study) and treatment was assessed by a two-way (time, treatment) analysis of variance (ANOVA) with repeated measures on the time factor. […] The differences between pairs of curves (treatments) were analyzed using appropriate contrasts within the ANOVA test. […]

[3] = Chronic administration in animals made obese by a simplified cafeteria diet; type: in vivo, rats

Structure (SMILES): O=C(NN1CCCCC1)C1=NN(c2ccc(Cl)cc2Cl)[C@@H](c2ccc(Cl)cc2)C1 [A, (R)-N-piperidinyl-5-(4chlorophenyl)-1-(2,4-dichlorophenyl)-4,5-dihydro-1H-pyrazole-3-carboxamide]
- IC50 (CB1-receptor): 16.1 nM
- Antagonism [%] [1]: 106%
- effect on body weight ([2]; days 8-21, FIG. 1): stronger action than the racemate
- recovery of weight after treatment ([2]; escape period days 23-36, FIG. 1): slower recovery of weight
- body weight on chronic administration ([3]; animals made obese by cafeteria diet (high-fat diet, chocolate, ground peanuts)): significantly decreased body weight
- body weight after 28 days of drug treatment versus vehicle-treated controls ([3]; obese rats, 28 days of treatment): lower than those of the vehicle-treated controls

Structure (SMILES): O=C(NN1CCCCC1)C1=NN(c2ccc(Cl)cc2Cl)[C@@H](c2ccc(Cl)cc2)C1 [A-Hydrochloride]
- IC50 (CB1-receptor): 20 nM
- Antagonism [%] [1]: 113%
